pEC50: −log10 of the molar value.

In one assay the test system is MDA-MB-468 cells. The assay is described as follows: MDA-MB-468 cell viability, CellTiter-Glo, 24 hrs. Format: cell-based, human. Conditions: 24 hrs incubation. The method, then: MDA-MB-468 cells, isolated from a pleural effusion of a patient with metastatic adenocarcinoma of the breast, is a triple negative breast cancer (TNBC) cell line. The IC 50 value of E05 or lapatinib (Sigma) or the structural analogues of E05 were tested in this cell line.
Briefly, MDA-MB-468 cells (ATCC #HTB-32) were seeded with a density of 5,000 cells per well in a 96 well white plate (Costar Cat #3917) in DMEM media supplemented with 10% FBS (assay medium). The plates were incubated at 37° C., 5% CO2 for 24 hr. E05 and analogues were diluted in the assay medium and added to the respective wells of the assay plate. The plates were further incubated at 37° C., 5% CO2 for 24 hrs. After the incubation, the cell viability was assessed using CellTiter-Glo® and the plates were read for luminescence using Cytation 5 (Biotek). The relative luminescence unit (RLU) obtained was plotted against the concentration and EC50 values were estimated using Graphpad Prism 5 software (FIG. 15 and Table 2).
On the technique in general: ATP-based viability assays read luminescence as a measure of living cells.
Consider `O=C(O)CCc1ccc(O)cc1O` [E05_B, 3-(2,4-Hydroxyphenyl)-propionic acid], for which the “Activity (EC50)” value is given as “Inactive”.
With `O=C(O)CCc1cccc(O)c1` [E05_C, 3-(3-Hydoxyphenyl)-propionic acid], the “Activity (EC50)” value is “Inactive”.
As for `O=C(O)CCc1ccc(O)cc1` [E05_D, 3-(4-Hydroxyphenyl)-propionic acid (Phloretic acid)], the “Activity (EC50)” value was “Inactive”.
Same read-out and setting: with `COc1ccc(C(=O)O)cc1O` [E05_F, 3-Hydroxy-4-methoxy-benzoic acid (Isovamillic acid)] the entry was “Inactive”.
On to `COc1cc(C(=O)O)ccc1O` [E05_G, 4-Hydroxy-3-methoxy-benzoic acid (Vanillic acid)], for which the “Activity (EC50)” value is reported as “Inactive”.
The same measure, in the same setting: with `O=C(O)c1ccc(O)cc1O` [E05_H, 2,4-Dihydroxybenzoic acid] the entry was “Inactive”.

The assay is the same for the next values; noted with them: Homo sapiens, 24 hrs incubation.
Consider `O=C(O)/C=C/c1ccc(O)c(O)c1` [E05_A], for which the pEC50 was 3.91.
Compound `Oc1ccccc1O` [E05_E, 1,2-Dihydroxybenzene (Catechol)] had a pEC50 of 3.99.

The pEC50 is −log10 of the EC50, conventionally taken in molar units. The low end stands for a large EC50, the high end for a small EC50.

The values are drawn from patent US20220370385A1, “COMPOSITIONS FOR USE IN INHIBITING SRC KINASE AND TREATING AND PREVENTING ASSOCIATED DISORDERS” (Enzene Biosciences Ltd., priority 2019, published 2022).
